Reference: paper PMC8591507, “Progesterone receptor membrane component 1 (PGRMC1) binds and stabilizes cytochromes P450 through a heme-independent mechanism” (The Journal of Biological Chemistry, 2021)

Experiments:
[1] = biological target: T1, Y113F PGRMC1 (progesterone receptor membrane component 1) (Homo sapiens, UniProt O00264, Y113F); assay: spectrophotometric hemin titration (A394), Hill fit; format: binding
T1 construct: recombinant truncated human PGRMC1 (aa 43–195), His tag removed by thrombin

[2] = biological target: T2, PGRMC1 (progesterone receptor membrane component 1) (Homo sapiens, UniProt O00264); assay: as above; format: binding
T2 construct: recombinant truncated human PGRMC1 (aa 43–195), His tag removed by thrombin
T2 sequence (O00264 43-195): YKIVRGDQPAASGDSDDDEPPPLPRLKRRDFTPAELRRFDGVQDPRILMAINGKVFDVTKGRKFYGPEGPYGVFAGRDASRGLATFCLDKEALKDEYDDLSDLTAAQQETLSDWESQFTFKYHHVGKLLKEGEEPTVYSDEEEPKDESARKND

T1 sequence (O00264 43-195 Y113F): as the sequence (O00264 43-195) above, with Y71F counted along it

C=CC1=C(C)C2=Cc3c(C=C)c(C)c4[n]3[Fe]([Cl])[n]3c(c(C)c(CCC(=O)O)c3=CC3=NC(=C4)C(C)=C3CCC(=O)O)=CC1=N2 [hemin]
Kd [1]: 4.7 ± 0.42 µM
Kd [2]: 4.9 ± 0.33 µM
